Source: PMC6630837 (Pharmaceuticals, 2019)
Entries after “also recorded” stand apart in the source; their conditions may differ.

Legend:
[1] = Cell viability (MTT) assay in HepG2 cells; format: cell-based, human; settings: human; HepG2 cells, 0.1 μM to 100 μM; read-out: IC50 (cytotoxicity)
Method: (§1) Cell viability assay in human epithelial colorectal adenocarcinoma (Caco-2) and human liver hepatocellular (HepG2) cells. Caco-2 and HepG2 Cells were cultured in DMEM-Dulbecco’s modified Eagle’s medium (Sigma-Aldrich) supplemented with 10% (v/v) inactivated fetal bovine serum (PAA Laboratories GmbH), 2 mM L-glutamine (Sigma-Aldrich), 100 U/mL penicillin and 100 μg/mL streptomycin (Sigma-Aldrich), in a humidified incubator at 37 °C with a 5% CO2 atmosphere. Cells (3 × 10^4 cells/well) were seeded into 96-well plates and incubated at 37 °C in 5% CO2 atmosphere. After 24 h, compounds were added at different concentrations (0.1–100 μM) and incubated in the same conditions. DMSO controls were performed to evaluate a possible solvent cytotoxicity, while pure DMSO was used as a cytotoxic drug. After the established incubation time with compounds, MTT (5 mg/mL) in PBS (Sigma-Aldrich) was added (10 μL) to each well. After 3 h incubation at 37 °C, in 5% CO2, the supernatant was removed. The formazan crystals were solubilized using ethanol/DMSO (1:1) (100 μL), and the absorbance values were determined at 570 nm on the microplate reader Victor3 from PerkinElmer Life Sciences.

[2] = tested on: human liver hepatocellular (HepG2) cells; assay: Cell viability (MTT) assay in HepG2 cells; format: cell-based; settings: at 100 μM
Method: as §1

[3] = tested on: SH-SY5Y human neuroblastoma cells; assay: Neuroprotection against Aβ1-42-induced toxicity, MTT cell viability assay; format: cell-based; settings: 50 μM compound, 20 μM Aβ1-42, 24 h, 37 °C
Method: Neuroprotective activity assays against Aβ1-42-induced toxicity. From all compounds tested in the above presented assay, the pair 8 and 19 presented the strongest neuroprotective potential, with convincing proof on the importance of the aglycone for the desired neuroprotective effects against H2O2-induced cell injury. […] Here, the MTT assay was used once again to assess cell viability of SH-SY5Y cells treated with 20 μM of Aβ1-42, in the presence of 50 μM of each compound. Similar protocols have been used to screen candidates for AD therapy. Moreover, based on the existing evidence that in situ spontaneous fibrillization of Aβ1-42 in the incubation mixture is important in the triggering of neurotoxic effects, we added the Aβ1-42 peptide fragment dissolved in DMSO to the culture medium prior to incubation, together with each compound in study. […] Even though there is published evidence that undifferentiated SH-SY5Y cells are not as sensitive to Aβ1-42-induced neurite degeneration and apoptosis as differentiated ones, with 20 μM of Aβ1-42 we were able to observe a significant decrease in cellular MTT reduction capacity, corresponding to roughly half of the cell viability rates observed in the non-treated control.
Neuroprotective assays in human neuroblastoma (SH-SY5Y) cells. […] Differences were considered significant when P < 0.05.

[4] = biological target: T1, butyrylcholinesterase (BuChE) (Equus caballus, UniProt P81908); assay: biochemical; settings: 100 µM compound
T1 construct: (BuChE, equine serum); from tissue; host or cells: equine serum
Method: Experimental procedures for cholinesterase inhibition a s sa y s. For cholinesterase inhibition tests (acetylcholinesterase (AChE, electrophorus
el ec t r ic u s) a n d b ut yr ylcholinesterase (BuChE, equine serum), the Ellman’s cholorimetric assay1 was followed, with minor modifications. DMSO
was kept within 1.25% cuvette concentration. The chromogenic agent DTNB [5,5’-dithiobis(2-nitrobenzoic acid)] was fixed at 0.975 mM
con centration; 0. 1 M phosphate buffer (pH 8. 0) was employed, T = 25 °C, and the reaction was monitored for 125 s. […]
of inhibition, the substrate concentration (acetylthiocholine iodide for AChE; S- butyr ylthiocholine iodide for BuChE) was fixed at 29 µM for
AChE and at 18.2 µM concentration for BuChE.
Lineweaver-Burk plot (or double reciprocal plot, 1/V vs . 1/ [S ]) wa s u se d for estimating both, the mode of inhibition and the inhibition constants […]
Competitive inhibition (inhibitor only bonds the free enzyme):
KKiiii = [II ]KKMM iiaaaa
M i xe d inhibition (inhibitor binds both, the free and the complexed enzyme) :
Uncompetitive (the inhibitors only binds the complexed enzyme):
N on -competitive (inhibitor binds both the free enzyme and the complexed enzyme with equal affinity) :
Table S3. […]
of the synthesized flavone analogues at 100 µ M.
C omp ou n d N o. AChE B uChE

[5] = LogD7.4 determination (octan-1-ol/phosphate buffer, LC-MS); format: physicochemical; settings: octan-1-ol/phosphate buffer, pH 7.4, octan-1-ol/phosphate buffer pH 7.4, 25 °C; read-out: Log D7.4 (partition coefficient at pH 7.4)
Method: LogD7.4 determination. The in-silico prediction tool ALOGPS [4] was used to estimate the octanol-water partition coefficients (log P) of the compounds. […] For each category, two different ratios (volume of octan-1-ol to volume of buffer) were defined as experimental parameters (Table 2).
Equal amounts of phosphate buffer (0.1 M, pH 7.4) and octan-1-ol were mixed and shaken vigorously for 5 min to saturate the phases. The mixture was left until separation of the two phases, and the buffer was retrieved. Stock solutions of the test compounds were diluted with buffer to a concentration of 1 μM. For each compound, three determinations per octan-1-ol:buffer ratio were performed in different wells of a 96-well plate. The respective volumes of buffer-containing analyte (1 μM) were pipetted to the wells and covered by saturated octan-1-ol according to the chosen volume ratio. […] The aqueous phase was transferred to a 96-well plate for analysis by liquid chromatography-mass spectrometry (LCMS, see below).
Results are presented as the mean ± SD of three independent experiments.
LC-MS measurements. […] The system was controlled with the Agilent MassHunter Workstation Data Acquisition software (version B.01.04). The column used was an AtlantisR T3 C18 column (2.1 × 50 mm) with a 3 μm-particle size (Waters Corp., Milford, MA, USA). The mobile phase consisted of eluent A: 10 mM ammonium acetate, pH 5.0 in 95:5, H2O:MeCN; and eluent B: MeCN containing 0.1% formic acid. The flow rate was maintained at 0.6 mL/min. […] MS parameters such as fragmentor voltage, collision energy, and polarity were optimized individually for each drug, and the molecular ion was followed for each compound in the multiple reaction monitoring mode. The concentrations of the analytes were quantified by the Agilent Mass Hunter Quantitative Analysis software (version B.01.04).

T1 sequence (P81908 whole entry): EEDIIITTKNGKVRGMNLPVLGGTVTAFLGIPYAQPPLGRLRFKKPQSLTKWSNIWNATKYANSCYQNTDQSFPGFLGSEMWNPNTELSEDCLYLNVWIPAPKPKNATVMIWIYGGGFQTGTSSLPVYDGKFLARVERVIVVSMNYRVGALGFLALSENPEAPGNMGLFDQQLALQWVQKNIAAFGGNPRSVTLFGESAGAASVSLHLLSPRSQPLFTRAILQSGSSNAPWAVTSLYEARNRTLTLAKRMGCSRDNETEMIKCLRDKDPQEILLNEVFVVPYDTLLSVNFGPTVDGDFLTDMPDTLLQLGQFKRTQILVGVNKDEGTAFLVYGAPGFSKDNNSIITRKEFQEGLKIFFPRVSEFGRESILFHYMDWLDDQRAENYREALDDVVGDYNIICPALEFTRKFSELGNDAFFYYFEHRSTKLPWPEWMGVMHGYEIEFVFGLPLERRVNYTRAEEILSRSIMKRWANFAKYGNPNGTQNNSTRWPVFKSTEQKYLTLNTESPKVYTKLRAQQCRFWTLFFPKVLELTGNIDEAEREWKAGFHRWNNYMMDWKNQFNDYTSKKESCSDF

Structure (SMILES): O=c1cc(-c2ccc(N3CCOCC3)cc2)oc2c([C@@H]3O[C@H](CO)[C@@H](O)[C@H](O)[C@H]3O)c(O)cc(O)c12 [Compound 19, 8-(β-D-Glucopyranosyl)-5,7-dihydroxy-4′-(morpholin-4-yl)flavone]
- IC50 [1]: ≥ 100 µM
- Cytotoxicity towards HepG2 cells [2]: did not show any cytotoxicity
- Neuroprotective effect against Aβ1-42-induced toxicity (MTT cell viability) [3]: the result with the highest significance when compared to controls; also recorded: the result with the highest significance when compared to the controls
- Neuroprotective effect against Aβ1-42-induced toxicity (MTT cell viability) ([3]; listed as 37): fully rescued
- BuChE inhibitory efficacy (percentage of inhibition) [4]: n.i .
- logD [5]: 1.8 ± 0.2
